Test results taken from ChEMBL document CHEMBL1142404, “Synthesis of 2-modified aristeromycins and their analogs as potent inhibitors against Plasmodium falciparum S-adenosyl-L-homocysteine hydrolase” (Bioorg Med Chem, 2008).

Columns and labels:
adenosine deaminase = assay: Metabolic stability in presence of calf intestinal adenosine deaminase assessed as compound remaining after 15 mins; format: ADME; conditions: cattle, read-out: Activity
Adenosylhomocysteinase [1] = molecular target: Adenosylhomocysteinase (Homo sapiens, UniProt P23526); assay: Inhibition of human SAHH
Adenosylhomocysteinase (Homo sapiens, UniProt P23526), sequence (P23526 whole entry): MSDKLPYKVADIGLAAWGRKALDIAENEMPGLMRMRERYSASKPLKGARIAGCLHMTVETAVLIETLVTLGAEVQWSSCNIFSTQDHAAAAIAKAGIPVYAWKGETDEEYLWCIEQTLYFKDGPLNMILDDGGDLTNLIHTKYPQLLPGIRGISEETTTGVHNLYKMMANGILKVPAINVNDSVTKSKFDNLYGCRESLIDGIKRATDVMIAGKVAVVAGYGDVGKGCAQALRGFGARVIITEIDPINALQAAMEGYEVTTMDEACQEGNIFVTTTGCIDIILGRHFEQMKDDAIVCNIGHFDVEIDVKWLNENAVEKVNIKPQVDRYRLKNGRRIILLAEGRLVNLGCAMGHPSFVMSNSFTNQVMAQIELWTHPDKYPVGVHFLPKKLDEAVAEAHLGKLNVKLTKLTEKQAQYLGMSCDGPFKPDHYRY

Adenosylhomocysteinase [2] = molecular target: Adenosylhomocysteinase (Plasmodium falciparum 3D7, UniProt P50250); assay: Inhibition of Plasmodium falciparum SAHH
Adenosylhomocysteinase (Plasmodium falciparum 3D7, UniProt P50250), sequence (P50250 whole entry): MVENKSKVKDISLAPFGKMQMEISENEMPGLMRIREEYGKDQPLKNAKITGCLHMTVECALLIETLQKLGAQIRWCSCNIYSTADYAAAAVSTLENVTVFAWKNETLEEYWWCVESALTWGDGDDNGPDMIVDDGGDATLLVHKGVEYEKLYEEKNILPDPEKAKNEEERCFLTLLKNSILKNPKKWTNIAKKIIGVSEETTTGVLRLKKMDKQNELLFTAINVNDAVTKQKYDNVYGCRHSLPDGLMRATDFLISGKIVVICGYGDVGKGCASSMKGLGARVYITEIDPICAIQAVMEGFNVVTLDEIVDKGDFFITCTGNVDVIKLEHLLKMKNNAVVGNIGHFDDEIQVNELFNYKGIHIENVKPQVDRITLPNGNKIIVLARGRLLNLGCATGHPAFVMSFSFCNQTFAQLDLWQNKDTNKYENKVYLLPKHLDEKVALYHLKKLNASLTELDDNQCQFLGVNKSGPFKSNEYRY

remaining at 0.25 h (adenosine deaminase)	IC50 (Adenosylhomocysteinase [1])	IC50 (Adenosylhomocysteinase [2])	Structure (SMILES)
95.2%	90.7 µM	4.51 µM	Nc1nc(N)c2ncn([C@@H]3C[C@H](CO)[C@@H](O)[C@H]3O)c2n1
99.5%	47.2 µM	1.98 µM	Nc1nc(F)nc2c1ncn2[C@@H]1C[C@H](CO)[C@@H](O)[C@H]1O
22.4%	–	–	Nc1ncnc2c1ncn2[C@@H]1C[C@H](CO)[C@@H](O)[C@H]1O [ARISTEROMYCIN]
